Source: patent US10626144B2, “Peptide derivatives and uses thereof” (Nosopharm, priority 2014, dated 2020)
Numbered stars: 1 amine (or outer) side, 2 acyl side, 3 side chain; on linkers, the order of the positions; unused ones are H or OH. Square brackets hold non-standard residues; d marks the D form. Peptide text beside a SMILES is read from it. * marks the point of attachment. ξ: configuration not given here. Pro(cis-4-CF3) = O=C(O)[C@@H]1C[C@H](C(F)(F)F)CN1; Phe(3-CF3) = N[C@@H](Cc1cccc(C(F)(F)F)c1)C(=O)O; Phe(3-CONH2) = NC(=O)c1cccc(C[C@H](N)C(=O)O)c1; Phe(3,5-F2) = N[C@@H](Cc1cc(F)cc(F)c1)C(=O)O; Abu(4,4,4-F3) = N[C@@H](CC(F)(F)F)C(=O)O; Oic(3aξ,7aξ) = O=C(O)[C@@H]1CC2CCCCC2N1; Phe(3-F) = N[C@@H](Cc1cccc(F)c1)C(=O)O; Pro(4,4-F2) = O=C(O)[C@@H]1CC(F)(F)CN1; Dab(3S-OH) = NC[C@H](O)[C@H](N)C(=O)O; 4Pal = N[C@@H](Cc1ccncc1)C(=O)O; Met(O) = CS(=O)CC[C@H](N)C(=O)O; X5 = O=C(C(N[*:1])c1cccs1)[*:2]; ΔZArg = N=C(N)NCC/C=C(\N)C(=O)O; Lys(Me) = CNCCCC[C@H](N)C(=O)O; AllylGly = C=CC[C@H](N)C(=O)O; dOrn = NCCC[C@@H](N)C(=O)O; Pra = C#CC[C@H](N)C(=O)O; Dab = NCC[C@H](N)C(=O)O; NH(CH2)4NH2 = NCCCCN*

Experiments:
Test in all cases: MIC, broth microdilution (CLSI), reference strain
Details in all cases: CAMHB
[1] = tested on: Pseudomonas aeruginosa ATCC 27853
[2] = tested on: Escherichia coli ATCC 25922
[3] = tested on: Staphylococcus aureus ATCC 13709
[4] = tested on: Acinetobacter baumannii ATCC 19606

Pa: MIC Pseudomonas aeruginosa ATCC 27853 [1]	Ec: MIC Escherichia coli ATCC 25922 [2]	Sa: MIC Staphylococcus aureus ATCC 13709 [3]	Ab: MIC Acinetobacter baumannii ATCC 19606 [4]	Structure (SMILES)
− (>32 μg/mL)	− (>32 μg/mL)	++ (≤8 μg/mL)	− (>32 μg/mL)	C[C@H](NC(=O)[C@H](CCN)NC(=O)[C@@H](N)CCCCN)C(=O)NCC(=O)N[C@H](CCCN)C(=O)N1C[C@@H](C(F)(F)F)C[C@H]1C(=O)N[C@@H](Cc1cnc[nH]1)C(=O)N[C@@H](CCCCN)C(=O)N/C(=C\CCNC(=N)N)C(=O)N[C@@H](CCCCN)C(=O)NCCCCN [14.15] (H-K[Dab]AG[dOrn][Pro(cis-4-CF3)]HK[ΔZArg]K-{NH(CH2)4NH2})
− (>32 μg/mL)	++ (≤8 μg/mL)	++ (≤8 μg/mL)	− (>32 μg/mL)	N=C(N)NCC/C=C(\NC(=O)[C@H](CCCCN)NC(=O)[C@H](Cc1cccc(C(N)=O)c1)NC(=O)[C@@H]1CCCN1C(=O)[C@@H](CCCN)NC(=O)CNC(=O)[C@H](CCN)NC(=O)[C@@H](NC(=O)[C@@H](N)CCCCN)[C@@H](O)CN)C(=O)O [21.6] (H-K[Dab(3S-OH)][Dab]G[dOrn]P[Phe(3-CONH2)]K[ΔZArg]-OH)
− (>32 μg/mL)	− (>32 μg/mL)	+ (≤32 μg/mL)	− (>32 μg/mL)	C[C@H](NC(=O)[C@H](CCN)NC(=O)[C@@H](N)CCN)C(=O)NCC(=O)N[C@H](CCCN)C(=O)N1CCC[C@H]1C(=O)N[C@@H](Cc1cnc[nH]1)C(=O)N[C@@H](CCCCN)C(=O)N/C(=C\CCNC(=N)N)C(=O)N[C@@H](CCCCN)C(=O)NCCCCN [14.25] (H-[Dab][Dab]AG[dOrn]PHK[ΔZArg]K-{NH(CH2)4NH2})
− (>32 μg/mL)	− (>32 μg/mL)	++ (≤8 μg/mL)	− (>32 μg/mL)	C[C@H](NC(=O)[C@H](CCN)NC(=O)[C@@H](N)CCCCN)C(=O)NCC(=O)N[C@H](CCCN)C(=O)N1CC(F)(F)C[C@H]1C(=O)N[C@@H](Cc1cnc[nH]1)C(=O)N[C@@H](CCCCN)C(=O)N/C(=C\CCNC(=N)N)C(=O)N[C@@H](CCCCN)C(=O)NCCCCN [14.10] (H-K[Dab]AG[dOrn][Pro(4,4-F2)]HK[ΔZArg]K-{NH(CH2)4NH2})
− (>32 μg/mL)	+ (≤32 μg/mL)	++ (≤8 μg/mL)	− (>32 μg/mL)	C[C@H](NC(=O)[C@H](CCN)NC(=O)[C@@H](N)CCCCN)C(=O)NCC(=O)N[C@H](CCCN)C(=O)N1CCC[C@H]1C(=O)N[C@@H](Cc1cnc[nH]1)C(=O)N[C@@H](CCCCN)C(=O)N/C(=C\CCNC(=N)N)C(=O)N[C@@H](CCCCN)C(N)=O [14.12] (H-K[Dab]AG[dOrn]PHK[ΔZArg]K-NH2)
− (>32 μg/mL)	+ (≤32 μg/mL)	++ (≤8 μg/mL)	− (>32 μg/mL)	C=CC[C@H](NC(=O)[C@@H]1CCCN1C(=O)[C@@H](CCCN)NC(=O)CNC(=O)[C@H](C)NC(=O)[C@@H](NC(=O)[C@@H](N)CCCCN)[C@@H](O)CN)C(=O)N[C@@H](CCCCN)C(=O)N/C(=C\CCNC(=N)N)C(=O)O [24.111] (H-K[Dab(3S-OH)]AG[dOrn]P[AllylGly]K[ΔZArg]-OH)
− (>32 μg/mL)	++ (≤8 μg/mL)	++ (≤8 μg/mL)	− (>32 μg/mL)	N=C(N)NCC/C=C(\NC(=O)[C@H](CCCCN)NC(=O)[C@H](Cc1cccc(F)c1)NC(=O)[C@@H]1CCCN1C(=O)[C@@H](CCCN)NC(=O)CNC(=O)[C@@H](NC(=O)[C@@H](NC(=O)[C@@H](N)CCCCN)[C@@H](O)CN)[C@@H](O)CN)C(=O)O [22.36] (H-K[Dab(3S-OH)][Dab(3S-OH)]G[dOrn]P[Phe(3-F)]K[ΔZArg]-OH)
− (>32 μg/mL)	+ (≤32 μg/mL)	+ (≤32 μg/mL)	− (>32 μg/mL)	C[C@H](NC(=O)[C@@H](NC(=O)[C@@H](N)CCCCN)[C@@H](O)CN)C(=O)NCC(=O)N[C@H](CCCN)C(=O)N1C2CCCCC2C[C@H]1C(=O)N[C@@H](Cc1cnc[nH]1)C(=O)N[C@@H](CCCCN)C(=O)N/C(=C\CCNC(=N)N)C(=O)O (stereo partly drawn) [24.75] (H-K[Dab(3S-OH)]AG[dOrn][Oic(3aξ,7aξ)]HK[ΔZArg]-OH)
− (>32 μg/mL)	+ (≤32 μg/mL)	+ (≤32 μg/mL)	− (>32 μg/mL)	C#CC[C@H](NC(=O)[C@@H](NC(=O)[C@@H](N)CCCCN)[C@@H](O)CN)C(=O)NCC(=O)N[C@H](CCCN)C(=O)N1CCC[C@H]1C(=O)N[C@@H](Cc1cnc[nH]1)C(=O)N[C@@H](CCCCN)C(=O)N/C(=C\CCNC(=N)N)C(=O)O [223.1] (H-K[Dab(3S-OH)][Pra]G[dOrn]PHK[ΔZArg]-OH)
− (>32 μg/mL)	+ (≤32 μg/mL)	++ (≤8 μg/mL)	− (>32 μg/mL)	C[C@H](NC(=O)[C@@H](NC(=O)[C@@H](N)CCCCN)[C@@H](O)CN)C(=O)NCC(=O)N[C@H](CCCN)C(=O)N1CCC[C@H]1C(=O)N[C@@H](Cc1cccc(C(F)(F)F)c1)C(=O)N[C@@H](CCCCN)C(=O)N/C(=C\CCNC(=N)N)C(=O)O [24.87] (H-K[Dab(3S-OH)]AG[dOrn]P[Phe(3-CF3)]K[ΔZArg]-OH)
− (>32 μg/mL)	− (>32 μg/mL)	− (>32 μg/mL)	− (>32 μg/mL)	C[C@H](NC(=O)[C@@H](NC(=O)[C@@H](N)CCCCN)[C@@H](O)CN)C(=O)NCC(=O)N[C@H](CCCN)C(=O)N1CCC[C@H]1C(=O)N[C@@H](CC[S+](C)[O-])C(=O)N[C@@H](CCCCN)C(=O)N/C(=C\CCNC(=N)N)C(=O)O (stereo partly drawn) [24.132] (H-K[Dab(3S-OH)]AG[dOrn]P[Met(O)]K[ΔZArg]-OH)
− (>32 μg/mL)	+ (≤32 μg/mL)	++ (≤8 μg/mL)	− (>32 μg/mL)	C[C@H](NC(=O)[C@@H](NC(=O)[C@@H](N)CCCCN)[C@@H](O)CN)C(=O)NCC(=O)N[C@H](CCCN)C(=O)N1CCC[C@H]1C(=O)N[C@@H](Cc1cc(F)cc(F)c1)C(=O)N[C@@H](CCCCN)C(=O)N/C(=C\CCNC(=N)N)C(=O)O [24.86] (H-K[Dab(3S-OH)]AG[dOrn]P[Phe(3,5-F2)]K[ΔZArg]-OH)
− (>32 μg/mL)	++ (≤8 μg/mL)	++ (≤8 μg/mL)	− (>32 μg/mL)	CNCCCC[C@H](N)C(=O)N[C@H](C(=O)N[C@@H](C)C(=O)NCC(=O)N[C@H](CCCN)C(=O)N1CCC[C@H]1C(=O)N[C@@H](Cc1cnc[nH]1)C(=O)N[C@@H](CCCCN)C(=O)N/C(=C\CCNC(=N)N)C(N)=O)[C@@H](O)CN [24.64] (H-[Lys(Me)][Dab(3S-OH)]AG[dOrn]PHK[ΔZArg]-NH2)
− (>32 μg/mL)	− (>32 μg/mL)	+ (≤32 μg/mL)	− (>32 μg/mL)	C[C@H](NC(=O)[C@H](CCN)NC(=O)[C@@H](N)CCCCN)C(=O)NCC(=O)N[C@H](CCCN)C(=O)N1CCC[C@H]1C(=O)N[C@@H](Cc1cnc[nH]1)C(=O)N[C@@H](CCCCN)C(=O)N[C@H](CCCNC(=N)N)C(=O)N[C@@H](CCCCN)C(=O)NCCCCN [14.24] (H-K[Dab]AG[dOrn]PHK[dR]K-{NH(CH2)4NH2})
− (>32 μg/mL)	+ (≤32 μg/mL)	++ (≤8 μg/mL)	− (>32 μg/mL)	N=C(N)NCCC[C@@H](NC(=O)[C@H](CCCCN)NC(=O)[C@H](Cc1cnc[nH]1)NC(=O)[C@@H]1CCCN1C(=O)[C@@H](CCCN)NC(=O)CNC(=O)[C@@H](NC(=O)[C@@H](NC(=O)[C@@H](N)CCCCN)[C@@H](O)CN)[C@@H](O)CN)C(N)=O [22.30] (H-K[Dab(3S-OH)][Dab(3S-OH)]G[dOrn]PHK[dR]-NH2)
− (>32 μg/mL)	+ (≤32 μg/mL)	++ (≤8 μg/mL)	− (>32 μg/mL)	N=C(N)NCC/C=C(\NC(=O)[C@H](CCCCN)NC(=O)[C@H](CC(F)(F)F)NC(=O)[C@@H]1CCCN1C(=O)[C@@H](CCCN)NC(=O)CNC(=O)[C@@H](NC(=O)[C@@H](NC(=O)[C@@H](N)CCCCN)[C@@H](O)CN)[C@@H](O)CN)C(=O)O [22.40] (H-K[Dab(3S-OH)][Dab(3S-OH)]G[dOrn]P[Abu(4,4,4-F3)]K[ΔZArg]-OH)
− (>32 μg/mL)	− (>32 μg/mL)	+ (≤32 μg/mL)	− (>32 μg/mL)	C[C@H](NC(=O)[C@@H](NC(=O)[C@@H](N)CCCCN)[C@@H](O)CN)C(=O)NCC(=O)N[C@H](CCCN)C(=O)N1CCC[C@H]1C(=O)N[C@@H](Cc1ccncc1)C(=O)N[C@@H](CCCCN)C(=O)N/C(=C\CCNC(=N)N)C(=O)O [24.108] (H-K[Dab(3S-OH)]AG[dOrn]P[4Pal]K[ΔZArg]-OH)
− (>32 μg/mL)	− (>32 μg/mL)	+ (≤32 μg/mL)	− (>32 μg/mL)	C[C@H](NC(=O)[C@@H](NC(=O)[C@@H](N)CCCCN)[C@@H](O)CN)C(=O)NCC(=O)N[C@H](CCCN)C(=O)N1CCC[C@H]1C(=O)NC(C(=O)N[C@@H](CCCCN)C(=O)N/C(=C\CCNC(=N)N)C(=O)O)c1cccs1 (stereo partly drawn) [24.157] (H-K[Dab(3S-OH)]AG[dOrn]P[X5]K[ΔZArg]-OH)
